Measured values reported in patent US5807541A, “NSAID/fluoride periodontal compositions and methods” (Sepracor, Inc., priority 1996, dated 1998).
pIC50: −log10 of the molar value. Read-outs that look alike come from different tables or passages of the source.

Legend:
[1] = tested on: PGE2 secretion in human promyelocytic leukemia cells (HL-60 cells); test: PGE2 secretion in human promyelocytic leukemia (HL-60) cells (A23187-induced), fluoride and NSAIDs alone or combined; conditions: for % inhibition of PGE2 / % stimulation of PGE2 (value in parentheses): Table II; for % Inhibition of A23187-induced PGE2 secretion / % stimulation of A23187-induced PGE2 secretion: mean of two determinations;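 as to all read-outs here: fluoride given as NaF, each condition run in duplicate, signals corrected for background and referenced to control, IC50 obtained by nonlinear regression Hill fitting of the curve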
dental caries = conditions: professionally applied topical fluoride, dentifrices and mouthwashes; high risk patients; cited from earlier work
[2] = tested on: prostaglandin production in endothelial cells; conditions: under certain circumstances; cited from earlier work
G proteins = conditions: under certain circumstances; cited from earlier work
[3] = Homo sapiens, HL-60, read-out: % inhibition of PGE2
[4] = Homo sapiens, HL-60, read-out: IC50, inhibition of PGE2 secretion, summary of Tables III and IV
[5] = ketoprofen enantiomer 10^-7 M + F 0.05%
[6] = ketoprofen enantiomer 10^-7 M + F 0.1%
[7] = ketoprofen enantiomer 10^-7 M + F 0.5%
[8] = ketoprofen enantiomer 10^-7 M, F 0%
[9] = ketoprofen enantiomer 10^-8 M + F 0.05%
[10] = ketoprofen enantiomer 10^-8 M + F 0.1%
[11] = ketoprofen enantiomer 10^-8 M + F 0.5%
[12] = ketoprofen enantiomer 10^-8 M, F 0%
[13] = ketoprofen enantiomer 10^-9 M + F 0.05%
[14] = ketoprofen enantiomer 10^-9 M + F 0.1%
[15] = ketoprofen enantiomer 10^-9 M + F 0.5%
[16] = ketoprofen enantiomer 10^-9 M, F 0%
[17] = ketoprofen enantiomer 10^-10 M + F 0.05%, 0.0001 µM
[18] = ketoprofen enantiomer 10^-10 M + F 0.05%
[19] = ketoprofen enantiomer 10^-10 M + F 0.1%
[20] = ketoprofen enantiomer 10^-10 M + F 0.5%
[21] = ketoprofen enantiomer 10^-10 M, F 0%

## CC(C(=O)O)c1cccc(C(=O)c2ccccc2)c1 (racemic) [ketoprofen]
[1]; 10^-10 M ketoprofen alone
  inhibition of PGE2 (in words): undetected
[1]; 10^-10 M ketoprofen at 260 mM fluoride
  PGE2 production (in words): totally inhibited
[1]; [3]
  inhibition at 0.001 µM: 40%
  inhibition at 0.01 µM: 63%
  inhibition at 0.1 µM: 82%
[1]; Homo sapiens, HL-60, read-out: IC50, PGE2 production, racemic ketoprofen + 52 mM fluoride
  pIC50: 7.93
[1]; Homo sapiens, HL-60, read-out: IC50, PGE2 production, racemic ketoprofen alone (no F)
  pIC50: 8.55
[1]; Homo sapiens, HL-60, read-out: inhibition of PGE2 levels
  inhibition at 0.0001 µM: 26%
[1]; racemic ketoprofen 10^-7 M + fluoride 26 mM
  % inhibition of PGE2: 66%
[1]; racemic ketoprofen 10^-7 M + fluoride 52 mM
  % inhibition of PGE2: 85%
[1]; racemic ketoprofen 10^-7 M + fluoride 260 mM
  % inhibition of PGE2: 98%
[1]; racemic ketoprofen 10^-8 M + fluoride 52 mM
  % inhibition of PGE2: 46%
[1]; racemic ketoprofen 10^-8 M + fluoride 260 mM
  % inhibition of PGE2: 97%
[1]; racemic ketoprofen 10^-9 M + fluoride 26 mM
  % stimulation of PGE2 (value in parentheses): 125%
[1]; racemic ketoprofen 10^-9 M + fluoride 52 mM
  % inhibition of PGE2: 11%
[1]; racemic ketoprofen 10^-9 M + fluoride 260 mM
  % inhibition of PGE2: 101%
[1]; racemic ketoprofen 10^-10 M + fluoride 26 mM
  % stimulation of PGE2 (value in parentheses): 125%
[1]; racemic ketoprofen 10^-10 M + fluoride 260 mM
  % inhibition of PGE2: 102%
[1]; fluoride 0.1% (52 mM) vs ketoprofen alone
  increase of IC50 for ketoprofen by fluoride: approximately 4 fold
[1]; highest concentration of ketoprofen (10^-7)
  stimulation induced by F^- (in words): overcome

## COc1ccc2c(c1)c(CC(=O)O)c(C)n2C(=O)c1ccc(Cl)cc1 [indomethacin]
[1]; Homo sapiens, HL-60, read-out: IC50, A23187-induced PGE2 secretion, in the absence of fluoride
  pIC50: 9.04

## C[C@@H](C(=O)O)c1cccc(C(=O)c2ccccc2)c1 [(R)-Ketoprofen]
[1]; [4]
  pIC50: ~7.00
[1]; [5]
  % Inhibition of A23187-induced PGE2 secretion: 47%
[1]; [6]
  % Inhibition of A23187-induced PGE2 secretion: 75%
[1]; [7]
  % Inhibition of A23187-induced PGE2 secretion: 100%
[1]; [8]
  % Inhibition of A23187-induced PGE2 secretion: 81%
[1]; [9]
  % Inhibition of A23187-induced PGE2 secretion: 5%
[1]; [10]
  % Inhibition of A23187-induced PGE2 secretion: 32%
[1]; [11]
  % Inhibition of A23187-induced PGE2 secretion: 99%
[1]; [12]
  % Inhibition of A23187-induced PGE2 secretion: 39%
[1]; ketoprofen enantiomer 10^-9 M + F 0.05%, 0.001 µM
  stimulation factor, A23187-induced PGE2 secretion: 1.14 ×
[1]; [13]
  % stimulation of A23187-induced PGE2 secretion: 14%
[1]; [14]
  % Inhibition of A23187-induced PGE2 secretion: 2%
[1]; [15]
  % Inhibition of A23187-induced PGE2 secretion: 99%
[1]; [16]
  % Inhibition of A23187-induced PGE2 secretion: 6%
[1]; [17]
  stimulation factor, A23187-induced PGE2 secretion: 1.27 ×
[1]; [18]
  % stimulation of A23187-induced PGE2 secretion: 27%
[1]; [19]
  % Inhibition of A23187-induced PGE2 secretion: 23%
[1]; [20]
  % Inhibition of A23187-induced PGE2 secretion: 98%
[1]; [21]
  % Inhibition of A23187-induced PGE2 secretion: 14%

## C[C@H](C(=O)O)c1cccc(C(=O)c2ccccc2)c1 [(S)-Ketoprofen]
[1]; [4]
  pIC50: ~9.40
[1]; S- vs R-ketoprofen
  relative potency, inhibition of PGE2 secretion (in words): more potent than R-ketoprofen
[1]; [5]
  % Inhibition of A23187-induced PGE2 secretion: 95%
[1]; [6]
  % Inhibition of A23187-induced PGE2 secretion: 98%
[1]; [7]
  % Inhibition of A23187-induced PGE2 secretion: 99%
[1]; [8]
  % Inhibition of A23187-induced PGE2 secretion: 96%
[1]; [9]
  % Inhibition of A23187-induced PGE2 secretion: 82%
[1]; [10]
  % Inhibition of A23187-induced PGE2 secretion: 89%
[1]; [11]
  % Inhibition of A23187-induced PGE2 secretion: 98%
[1]; [12]
  % Inhibition of A23187-induced PGE2 secretion: 89%
[1]; [13]
  % Inhibition of A23187-induced PGE2 secretion: 35%
[1]; [14]
  % Inhibition of A23187-induced PGE2 secretion: 54%
[1]; [15]
  % Inhibition of A23187-induced PGE2 secretion: 100%
[1]; [16]
  % Inhibition of A23187-induced PGE2 secretion: 70%
[1]; [17]
  stimulation factor, A23187-induced PGE2 secretion: 1.22 ×
[1]; [18]
  % stimulation of A23187-induced PGE2 secretion: 27%
[1]; [19]
  % Inhibition of A23187-induced PGE2 secretion: 18%
[1]; [20]
  % Inhibition of A23187-induced PGE2 secretion: 100%
[1]; [21]
  % Inhibition of A23187-induced PGE2 secretion: 10%

## [F-].[Na+] [fluoride, sodium fluoride]
[1]; F 0.0001% (52 μM)
  PGE2 secretion, % Control, 1st Value: 80.1%
  PGE2 secretion, % Control, 2nd value: 87.4%
  PGE2 secretion, % Control, mean: 83.7%
[1]; F 0.001% (520 μM)
  PGE2 secretion, % Control, 1st Value: 94.1%
  PGE2 secretion, % Control, 2nd value: 74.9%
  PGE2 secretion, % Control, mean: 84.5%
[1]; F 0.01% (5.2 mM)
  PGE2 secretion, % Control, 1st Value: 117.7%
  PGE2 secretion, % Control, 2nd value: 99.8%
  PGE2 secretion, % Control, mean: 108.7%
[1]; F 0.02% (10.4 mM)
  PGE2 secretion, % Control, 1st Value: 188.7%
  PGE2 secretion, % Control, 2nd value: 208.8%
  PGE2 secretion, % Control, mean: 198.8%
[1]; F 0.05% (26 mM)
  PGE2 secretion, % Control, 1st Value: 157.9%
  PGE2 secretion, % Control, 2nd value: 177.3%
  PGE2 secretion, % Control, mean: 167.6%
[1]; F 0.05%, ketoprofen 0
  stimulation factor, A23187-induced PGE2 secretion: 1.16 ×
  % stimulation of A23187-induced PGE2 secretion: 16%
[1]; F 0.07% (36 mM)
  PGE2 secretion, % Control, 1st Value: 142.1%
  PGE2 secretion, % Control, 2nd value: 142.1%
  PGE2 secretion, % Control, mean: 142.1%
[1]; F 0.1% (52 mM)
  PGE2 secretion, % Control, 1st Value: 115.1%
  PGE2 secretion, % Control, 2nd value: 112.6%
  PGE2 secretion, % Control, mean: 113.9%
[1]; F 0.1%, ketoprofen 0
  % Inhibition of A23187-induced PGE2 secretion: 26%
[1]; F 0.2% (104 mM)
  PGE2 secretion, % Control, 1st Value: 5.2%
  PGE2 secretion, % Control, 2nd value: 8.9%
  PGE2 secretion, % Control, mean: 7.0%
[1]; F 0.3% (156 mM)
  PGE2 secretion, % Control, 1st Value: 4.9%
  PGE2 secretion, % Control, 2nd value: 3.1%
  PGE2 secretion, % Control, mean: 4.0%
[1]; F 0.5% (260 mM)
  PGE2 secretion, % Control, 1st Value: 0.5%
  PGE2 secretion, % Control, 2nd value: 1.7%
  PGE2 secretion, % Control, mean: 1.1%
[1]; F 0.5%, ketoprofen 0
  % Inhibition of A23187-induced PGE2 secretion: 96%
[1]; concentration range employed for the prevention of dental caries
  production of prostaglandins (in words): stimulates the production of prostaglandins
[1]; fluoride 0.02%
  maximum stimulation of PGE2 secretion: 99%
[1]; fluoride 26 mM
  effect of fluoride on the inhibitory effects of R- and S-ketoprofen (in words): decrease of the inhibitory effects of R- and S-ketoprofen
[1]; fluoride 260 mM
  effect of fluoride in combination with R- and S-ketoprofen (in words): amplifies its inhibitory effects
[1]; fluoride above 0.2%
  effect on PGE2 secretion (in words): completely inhibits PGE2 secretion
[1]; fluoride alone, 26 mM (0.05%)
  stimulation of PGE2 production: 108%
[1]; fluoride alone, 52 mM
  inhibition of PGE2 production: 12%
[1]; fluoride alone, 260 mM
  inhibition of PGE2 production: 92%
[1]; fluoride below about 5 mM (below about 0.01% w/v)
  effect on stimulated PGE2 secretion (in words): no significant effect
[1]; fluoride from 0.0001 to 0.01%
  effect on PGE2 secretion (in words): no effect
[1]; fluoride from 0.02 to 0.07%
  effect on PGE2 secretion (in words): induces stimulation
[1]; fluoride ion above about 50 mM (above about 0.1% w/v)
  effect on PGE2 secretion (in words): inhibitory to PGE2 secretion
[1]; fluoride ion at about 10 mM
  peak production of PGE2, % of control: 200%
[1]; fluoride ion between about 5 and about 50 mM
  production of PGE2 (in words): stimulates the production of prostaglandin E2
Dental caries
  prevention of dental caries (in words): effective in preventing dental caries among high risk patients
[2]
  prostaglandin production in endothelial cells (in words): induce prostaglandin production
G proteins
  activation of G proteins (in words): activate G proteins
